From patent US11261186B2, “Biaryl derivative as GPR120 agonist” (LG CHEM, LTD., priority 2014, dated 2022)

Target: T1, hGPR120 (Homo sapiens, UniProt Q5NUL3)
T1 construct: expressed in transfected cells; host or cells: CHO-K1
T1 sequence (Q5NUL3 1-361): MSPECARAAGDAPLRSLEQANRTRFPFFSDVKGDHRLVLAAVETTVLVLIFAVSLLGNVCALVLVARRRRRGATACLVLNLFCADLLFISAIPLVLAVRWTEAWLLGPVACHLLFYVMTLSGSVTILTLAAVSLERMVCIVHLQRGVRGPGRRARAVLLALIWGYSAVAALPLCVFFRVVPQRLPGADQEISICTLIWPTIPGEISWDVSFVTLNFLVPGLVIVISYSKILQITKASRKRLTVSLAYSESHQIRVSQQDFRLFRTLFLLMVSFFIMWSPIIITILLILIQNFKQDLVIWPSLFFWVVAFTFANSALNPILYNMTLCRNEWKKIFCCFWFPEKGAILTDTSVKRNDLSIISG
Assay: Measurement of Activity of GPR120 Agonist (Cell-Based Assay), Calcium 5 dye fluorescence
Settings: CHO-K1 cells expressing Ga16 and hGPR120
Outline: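 After an 18 h incubation at 37 °C, the transfected CHO-K1 cells (Gα16, hGPR120) received Calcium 5 dye for 1 h; compound dilutions in 0.5% DMSO were then injected and emission at 525 nm recorded, with values given as % of the vehicle response.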

SMILES	EC50
Oc1cc(COc2c(F)cc(-c3cccnc3OC3CCCC3)cc2F)on1 [Example 67, 5-[[4-[2-(cyclopentoxy)-3-pyridyl]-2,6-difluoro-phenoxy]methyl]isoxazol-3-ol]	< 200 nM
CC(C)Sc1cccc(-c2ccc3c(c2)CCC(CCC(=O)O)O3)n1 (centres unmarked) [Example 8, 3-[6-(6-isopropylsulfanyl-pyridin-2-yl)-chroman-2-yl]-propionic acid]	< 200 nM
COc1ccc(-c2cc(F)c(C(C)CCCC(=O)O)c(F)c2)c2c1OC(C)(C)C2 (centres unmarked) [Example 260]	< 200 nM
O=C(O)CCCn1ccc2cc(-c3cccnc3SC3CCCC3)ccc21 [Example 200, 4-[5-(2-cyclopentylsulfanyl-pyridin-3-yl)-indol-1-yl]-butyric acid]	200 to 2000 nM
Cc1cc2cc(Cl)cc(-c3cc(F)c(C(C)CCCC(=O)O)c(F)c3)c2o1 (centres unmarked) [Example 519, 5-[4-(5-chloro-2-methyl-benzofuran-7-yl)-2,6-difluoro-phenyl]-hexanoic acid]	200 to 2000 nM
O=C(O)CCCOc1c(Cl)cc(-c2cccc(OC3CCC3)n2)cc1Cl [Example 386, 4-[2,6-dichloro-4-[6-(cyclobutoxy)-2-pyridyl]phenoxy]butanoic acid]	< 200 nM
O=C(O)CC1CCN(c2c(F)cc(-c3cncc(OC4CCC4)n3)cc2F)CC1 [Example 329, 2-[1-[4-[6-(cyclobutoxy)pyrazin-2-yl]-2,6-difluoro-phenyl]-4-piperidyl]acetic acid]	< 200 nM
CC(C)n1cc(Cl)c2ccc(-c3cc(F)c(OCCCC(=O)O)c(F)c3)cc21 [Example 562, 4-[4-(3-chloro-1-isopropyl-1H-indol-6-yl)-2,6-difluoro-phenoxy]-butanoic acid]	2000 to 20000 nM
O=C(O)CCCOc1c(F)cc(-c2csc(COC3CCC3)c2)cc1F [Example 573, 4-[4-(5-cyclobutoxymethyl-thiophen-3-yl)-2,6-difluoro-phenoxy]-butanoic acid]	< 200 nM
Cc1cc(OCC(C)C)nc(-c2cc(F)c(N3CCC(CC(=O)O)CC3)c(F)c2)n1 [Example 352, 2-[1-[2,6-difluoro-4-(4-isobutoxy-6-methyl-pyrimidin-2-yl)phenyl]-4-piperidyl]acetic acid]	200 to 2000 nM
O=C(O)CCC1CCc2cc(-c3cccc4c3OC3(CCCC3)C4)ccc2S1 (centres unmarked) [Example 283, 3-(6-spiro[3H-benzofuran-2,1′-cyclopentan]-7-yl-thiochroman-2-yl)-propionic acid]	200 to 2000 nM
O=C(O)CC1CCN(c2c(F)cc(-c3cncc(OC4CCCC4)n3)cc2F)CC1 [Example 344, 2-[1-[4-[6-(cyclopentoxy)pyrazin-2-yl]-2,6-difluoro-phenyl]-4-piperidyl]acetic acid]	< 200 nM
O=C(O)CCCOc1c(F)cc(-c2cccc(OC3CCC3)c2)cc1Cl [Example 405, 4-(5-chloro-3′-cyclobutoxy-3-fluoro-biphenyl-4-yloxy)-butyric acid]	< 200 nM
O=C(O)CCCOc1c(F)cc(-c2ccc3ccn(CC4CC4)c3c2)cc1F [Example 559, 4-[4-(1-cyclopropylmethyl-1H-indol-6-yl)-2,6-difluoro-phenoxy]-butanoic acid]	< 200 nM
O=C(O)CCCSc1ccc(-c2cccc3c2OC2(CCCC2)O3)cc1F [Example 157, 4-(2-fluoro-4-spiro[1,3-benzodioxol-2,1′-cyclopentan]-4-yl-phenyl)sulfanylbutanoic acid]	< 200 nM
O=C(O)CCC1CC1c1c(F)cc(-c2cccc(OC3CCC3)n2)cc1F (centres unmarked) [Example 180, 3-{2-[4-(6-cyclobutoxy-pyridin-2-yl)-2,6-difluoro-phenyl]-cyclopropyl}-propanoic acid]	< 200 nM
Cc1nsc(OC2CCC2)c1-c1cc(F)c(N2CCC(CC(=O)O)C2)c(F)c1 (centres unmarked) [Example 591, {1-[4-(5-cyclobutoxy-3-methyl-isothiazol-4-yl)-2,6-difluoro-phenyl]-pyrrolidin-3-yl}-acetic acid]	< 200 nM
CC(C)(CCCC(=O)O)c1ccc(-c2cccnc2OC2CCCC2)cc1F [Example 161, 5-[4-(2-cyclopentyloxy-pyridin-3-yl)-2-fluoro-phenyl]-5-methyl-hexanoic acid]	200 to 2000 nM
CC1(C)Oc2cccc(-c3cc(F)c(OCCCC(=O)O)c(F)c3)c2O1 [Example 23, 4-[4-(2,2-dimethyl-benzo[1,3]dioxol-4-yl)-2,6-difluoro-phenoxy]-butyric acid]	< 200 nM

Second part, the molecule after the results:

EC50	SMILES
< 200 nM	CCCOc1ccnc(-c2cc(F)c(N3CCC(CC(=O)O)C3)c(F)c2)n1 (centres unmarked) [Example 499, 2-{1-[2,6-difluoro-4-(4-propoxy-pyrimidin-2-yl)phenyl]pyrrolidin-3-yl}acetic acid]
2000 to 20000 nM	COc1ncccc1-c1cc(F)c(N(C)CCCC(=O)O)c(F)c1 [Example 219, 4-{[2,6-difluoro-4-(2-methoxy-pyridin-3-yl)-phenyl]-methyl-amino}-butyric acid]
200 to 2000 nM	O=C(O)CC1CCN(c2c(F)cc(-c3nccc(Oc4cccnc4)n3)cc2F)CC1 [Example 512]
< 200 nM	O=C(O)CCCOc1c(F)cc(-c2nccc(OCC3CC3)n2)cc1F [Example 433, 4-[4-(4-cyclopropylmethoxy-pyrimidin-2-yl)-2,6-difluoro-phenoxy]-butyric acid]
< 200 nM	CN(CCCC(=O)O)c1c(F)cc(-c2cccc(OCC3CC3)n2)cc1F [Example 493, 4-[4-[6-(cyclopropylmethoxy)-2-pyridyl]-2,6-difluoro-N-methyl-anilino]butanoic acid]
200 to 2000 nM	O=C(O)CCCOc1ccc(-c2cccnc2OCC2CC2)cc1F [Example 240, 4-[4-(2-cyclopropylmethoxy-pyridin-3-yl)-2-fluoro-phenoxy]-butyric acid]
< 200 nM	O=C(O)C[C@@H]1CCN(c2c(F)cc(-c3cccc(OCC4CC4)n3)cc2F)C1 [Example 604, {(S)-1-[4-(6-cyclopropylmethoxy-pyridin-2-yll)-2,6-difluoro-phenyl]-pyrrolidin-3-yl}-acetic acid]
< 200 nM	CCCSc1ncccc1-c1cc(F)c(C(C)CCCC(=O)O)c(F)c1 (centres unmarked) [Example 43, 5-[2,6-difluoro-4-(2-propylsulfanyl-3-pyridyl)-phenyl]hexanoic acid]
< 200 nM	CC(C)Sc1ncccc1-c1cc(F)c(N2CCC(CC(=O)O)CC2)c(F)c1 [Example 104, 2-[1-[2,6-difluoro-4-(2-isopropylsulfanyl-3-pyridyl)phenyl]-4-piperidyl]acetic acid]
200 to 2000 nM	CCCOc1cccc(-c2cc(F)c(N3CCC(CCC(=O)O)CC3)c(F)c2)n1 [Example 620, 3-{1-[2,6-difluoro-4-(6-propoxy-pyridin-2-yl)-phenyl]-piperidin-4-yl}-propionic acid]
< 200 nM	CC(C)Oc1cccc(-c2cc(F)c(N3CCC(CC(=O)O)CC3)c(F)c2)n1 [Example 296, 2-[1-[2,6-difluoro-4-(6-isopropoxy-2-pyridyl)phenyl]-4-piperidyl]acetic acid]
< 200 nM	O=C(O)CC1CN(c2c(F)cc(-c3nccc(OCC4CC4)n3)cc2F)C1 [Example 337, 2-[1-[4-[4-(cyclopropylmethoxy)pyrimidin-2-yl]-2,6-difluoro-phenyl]azetidin-3-yl]acetic acid]
< 200 nM	CC(C)Oc1ccnc(-c2cc(F)c(N3CCC(CC(=O)O)C3)c(F)c2)n1 (centres unmarked) [Example 500, 2-{1-[2,6-difluoro-4-(4-isopropoxy-pyrimidin-2-yl)phenyl]pyrrolidin-3-yl}acetic acid]
< 200 nM	CN(CCCC(=O)O)c1c(F)cc(-c2cccc3c2OC2(CCCC2)C3)cc1F [Example 263, 4-(2,6-difluoro-N-methyl-4-spiro[3H-benzofuran-2,1′-cyclopentan]-7-yl-anilino)-butyric acid]
200 to 2000 nM	CCOCc1cccc(-c2cc(F)c(N3CCC(CC(=O)O)CC3)c(F)c2)c1 [Example 303, 2-[1-[4-[3-(ethoxymethyl)phenyl]-2,6-difluoro-phenyl]-4-piperidyl]acetic acid]
< 200 nM	CN(CCCC(=O)O)c1c(F)cc(-c2cccnc2SC2CCCC2)cc1F [Example 197, 4-{[4-(2-cyclopentylsulfanyl-pyridin-3-yl)-2,6-difluoro-phenyl]-methyl-amino}-butyric acid]
< 200 nM	O=C(O)CCCOc1ccc(-c2cccnc2OC2CCCC2)cc1F [Example 234, 4-[4-(2-cyclopentyloxy-pyridin-3-yl)-2-fluoro-phenoxy]-butyric acid]
< 200 nM	O=C(O)CCCOc1ccc(-c2cccnc2OCC2CCC2)cc1F [Example 241, 4-[4-(2-cyclobutylmethoxy-pyridin-3-yl)-2-fluoro-phenoxy]-butyric acid]
200 to 2000 nM	CC(C)Oc1ncccc1-c1cc(F)c(N(C)CCCC(=O)O)c(F)c1 [Example 214, 4-{[2,6-difluoro-4-(2-isopropoxy-pyridin-3-yl)-phenyl]-methyl-amino}-butyric acid]
200 to 2000 nM	Cc1cc(OC(C)C)nc(-c2cc(F)c(N3CCC(CC(=O)O)CC3)c(F)c2)n1 [Example 350, 2-[1-[2,6-difluoro-4-(4-isopropoxy-6-methyl-pyrimidin-2-yl)phenyl]-4-piperidyl]acetic acid]
< 200 nM	CC(CCCCC(=O)O)c1c(F)cc(-c2cccnc2OC2CCCC2)cc1F (centres unmarked) [Example 237, 6-[4-(2-cyclopentyloxy-pyridin-3-yl)-2,6-difluoro-phenyl]-heptanoic acid]
< 200 nM	O=C(O)CCC1CCc2cc(-c3cccnc3SC3CCCC3)ccc2S1 (centres unmarked) [Example 281, 3-[6-(2-cyclopentylsulfanyl-pyridin-3-yl)-thiochroman-2-yl]-propionic acid]
